Experimental data as given in ChEMBL document CHEMBL5724914, “Linking interpersonal differences in gut microbiota composition and drug biotransformation activity” (2024).

Experiments:
[1] = The drug is tested on Z-024 corresponding to pig gut metagenome with ENA study accession number: PRJEB37062 and ENA sample accession number: ERS12561823 for biotransformation under anaerobic condition. The drug concentrations were measured over 9 timepoints collected between 0 and 24 hours of incubation by liquid-chromatography-coupled mass spectrometry (LC–MS); conditions: 2 µM
[2] = The drug is tested on Z-017 corresponding to mouse gut metagenome with ENA study accession number: PRJEB37062 and ENA sample accession number: ERS12561816 for biotransformation under anaerobic condition. The drug concentrations were measured over 9 timepoints collected between 0 and 24 hours of incubation by liquid-chromatography-coupled mass spectrometry (LC–MS); conditions: 2 µM
[3] = The drug is tested on Z-010 corresponding to metagenome with ENA study accession number: PRJEB37062 and ENA sample accession number: ERS12561810 for biotransformation under anaerobic condition. The drug concentrations were measured over 9 timepoints collected between 0 and 24 hours of incubation by liquid-chromatography-coupled mass spectrometry (LC–MS); conditions: 2 µM
[4] = The drug is tested on Z-009 corresponding to pig gut metagenome with ENA study accession number: PRJEB37062 and ENA sample accession number: ERS12561809 for biotransformation under anaerobic condition. The drug concentrations were measured over 9 timepoints collected between 0 and 24 hours of incubation by liquid-chromatography-coupled mass spectrometry (LC–MS); conditions: 2 µM
[5] = The drug is tested on Z-001 corresponding to mouse gut metagenome with ENA study accession number: PRJEB37062 and ENA sample accession number: ERS12561801 for biotransformation under anaerobic condition. The drug concentrations were measured over 9 timepoints collected between 0 and 24 hours of incubation by liquid-chromatography-coupled mass spectrometry (LC–MS); conditions: 2 µM
[6] = The drug is tested on WLS-350 corresponding to human gut metagenome with ENA study accession number: PRJEB37062 and ENA sample accession number: ERS12561789 for biotransformation under anaerobic condition. The drug concentrations were measured over 9 timepoints collected between 0 and 24 hours of incubation by liquid-chromatography-coupled mass spectrometry (LC–MS); conditions: 2 µM
[7] = The drug is tested on WLS-220 corresponding to human gut metagenome with ENA study accession number: PRJEB37062 and ENA sample accession number: ERS12561769 for biotransformation under anaerobic condition. The drug concentrations were measured over 9 timepoints collected between 0 and 24 hours of incubation by liquid-chromatography-coupled mass spectrometry (LC–MS); conditions: 2 µM
[8] = The drug is tested on WLS-086 corresponding to human gut metagenome with ENA study accession number: PRJEB37062 and ENA sample accession number: ERS12561752 for biotransformation under anaerobic condition. The drug concentrations were measured over 9 timepoints collected between 0 and 24 hours of incubation by liquid-chromatography-coupled mass spectrometry (LC–MS); conditions: 2 µM
[9] = The drug is tested on WLS-073 corresponding to human gut metagenome with ENA study accession number: PRJEB37062 and ENA sample accession number: ERS12561749 for biotransformation under anaerobic condition. The drug concentrations were measured over 9 timepoints collected between 0 and 24 hours of incubation by liquid-chromatography-coupled mass spectrometry (LC–MS); conditions: 2 µM
[10] = The drug is tested on WLS-052 corresponding to human gut metagenome with ENA study accession number: PRJEB37062 and ENA sample accession number: ERS12561747 for biotransformation under anaerobic condition. The drug concentrations were measured over 9 timepoints collected between 0 and 24 hours of incubation by liquid-chromatography-coupled mass spectrometry (LC–MS); conditions: 2 µM
[11] = The drug is tested on WLS-038 corresponding to human gut metagenome with ENA study accession number: PRJEB37062 and ENA sample accession number: ERS12561745 for biotransformation under anaerobic condition. The drug concentrations were measured over 9 timepoints collected between 0 and 24 hours of incubation by liquid-chromatography-coupled mass spectrometry (LC–MS); conditions: 2 µM
[12] = human gut metagenome, 24 h, 2 µM
[13] = human gut metagenome, 24 h, 2 µM; remark: listed apart in the source
[14] = human gut metagenome, 24 h, 2 µM; remark: listed apart in the source
[15] = human gut metagenome, 24 h, 2 µM; remark: listed apart in the source
[16] = human gut metagenome, 24 h, 2 µM; remark: listed apart in the source
[17] = human gut metagenome, 24 h, 2 µM; remark: listed apart in the source
[18] = human gut metagenome, 24 h, 2 µM; remark: listed apart in the source
[19] = human gut metagenome, 24 h, 2 µM; remark: listed apart in the source
[20] = human gut metagenome, 24 h, 2 µM; remark: listed apart in the source
Note: call rule not given here.

Row | Bacterial Biotransformation [1] | Bacterial Biotransformation [2] | Bacterial Biotransformation [3] | Bacterial Biotransformation [4] | Bacterial Biotransformation [5] | Bacterial Biotransformation [6] | Bacterial Biotransformation [7] | Bacterial Biotransformation [8] | Bacterial Biotransformation [9] | Bacterial Biotransformation [10] | Bacterial Biotransformation [11] | Bacterial Biotransformation [12] | Bacterial Biotransformation [13] | Bacterial Biotransformation [14] | Bacterial Biotransformation [15] | Bacterial Biotransformation [16] | Bacterial Biotransformation [17] | Bacterial Biotransformation [18] | Bacterial Biotransformation [19] | Bacterial Biotransformation [20] | Structure (SMILES)
1 | Compound NOT metabolized | Compound NOT metabolized | Compound NOT metabolized | Compound NOT metabolized | Compound NOT metabolized | Compound NOT metabolized | Compound NOT metabolized | Compound NOT metabolized | Compound NOT metabolized | Compound NOT metabolized | Compound NOT metabolized | Compound NOT metabolized | Compound NOT metabolized | Compound NOT metabolized | Compound NOT metabolized | Compound NOT metabolized | Compound NOT metabolized | Compound NOT metabolized | Compound NOT metabolized | Compound NOT metabolized | CC(C)NCC(O)c1ccc(NS(C)(=O)=O)cc1 (stereo not given) [SOTALOL]
2 | Compound NOT metabolized | Compound NOT metabolized | Compound metabolized | Compound metabolized | Compound metabolized | Compound NOT metabolized | Compound NOT metabolized | Compound metabolized | Compound NOT metabolized | Compound NOT metabolized | Compound NOT metabolized | Compound NOT metabolized | Compound NOT metabolized | Compound NOT metabolized | Compound NOT metabolized | Compound NOT metabolized | Compound metabolized | Compound metabolized | Compound metabolized | Compound metabolized | CCN1CCCC1CNC(=O)c1cc(S(N)(=O)=O)ccc1OC (stereo not given) [SULPIRIDE]
3 | Compound NOT metabolized | Compound NOT metabolized | Compound NOT metabolized | Compound NOT metabolized | Compound metabolized | Compound NOT metabolized | Compound metabolized | Compound metabolized | Compound NOT metabolized | Compound NOT metabolized | Compound NOT metabolized | Compound NOT metabolized | Compound NOT metabolized | Compound NOT metabolized | Compound NOT metabolized | Compound NOT metabolized | Compound metabolized | Compound metabolized | Compound metabolized | Compound NOT metabolized | CNS(=O)(=O)Cc1ccc2[nH]cc(CCN(C)C)c2c1.O=C(O)CCC(=O)O [SUMATRIPTAN SUCCINATE]
